≈ marks a conversion by molar mass, not a printed value.
How the values were obtained:
[1] = tested on: Sclerotinia sclerotiorum; test: Antifungal activity against Sclerotinia rot of kidney bean (sprayed cotyledons, mycelial inoculation); type: in vivo; settings: 500 ppm a.i.; for Average infected area: 28°C, RH 100%, 4 days; for Controlled value: (1-S/S₀)×100, 4 days
Procedure: A 20 ml sample solution containing a predetermined concentration of the active compound was sprayed on 10 cotyledons of a kidney bean (variety: Masterpiece), which were dried in a room. After drying, the mycelia of Sclerotinia sclerotiorum grown on a PDA culture medium was inoculated after punching with a cork borer. The incubation was carried out at a temperature of 28°C and an RH of 100% for 4 days. The infected area was measured. Ten tests were carried out in each run. […]

[2] = tested on: Botrytis cinerea; test: Antifungal activity against Botrytis cinerea by agar dilution method; type: cell-based; settings: 120 h, concentration for 90% inhibition of mycelium growth, potato-agar medium, 25°C, 5 days, read-out: EC₉₀
Procedure: The culture medium thus obtained was allowed to stand in a room with constant temperature for predetermined days. Thereafter, the growth of mycelium of the microorganism was measured and the concentration for 90% inhibition of the growth (EC₉₀) was determined. Four tests were carried out in each run. The tests for microorganisms were carried out at a temperature of 25°C for 5 days.

[3] = tested on: Botrytis cinerea; test: Activity persistence against gray mold of egg plant (spray 1 to 10 days before inoculation); type: in vivo; settings: 250 ppm a.i.
[4] = tested on: Botrytis cinerea; test: Curative activity against gray mold of egg plant (detached leaf, spray after disease development); type: in vivo; settings: 125 ppm a.i.
Procedure: A second developed leaf of egg plant (variety: Senryo #12) was placed in a petri dish and the mycelia of Botrytis cinerea grown on a PDA culture medium was inoculated after punching with a cork borer on the center of the leaf. The incubation was carried out at 25°C under humid condition for 24 hours. […] After air drying, the incubation was carried out at 25°C under humid condition. The diameter of the infected area was measured every day for 5 days after the application. Eight tests were carried out in each run.

[5] = tested on: rice blast fungus (Pyricularia oryzae); type: in vivo; settings: 500 ppm a.i., 10 days after inoculation; for No. of leaves in each infection degree 0: index 0 = 0 lesions per leaf; for No. of leaves in each infection degree 1: index 1 = 1 lesion per leaf; for No. of leaves in each infection degree 2: index 2 = 2-5 lesions per leaf; for No. of leaves in each infection degree 3: index 3 = 6-10 lesions per leaf; for No. of leaves in each infection degree 4: index 4 = 11 or more lesions per leaf; for % of Infected leaves / Infection degree / No. of infected leaves: rice seedlings
[6] = 1 day between application and inoculation
[7] = 4 days between application and inoculation
[8] = 7 days between application and inoculation
[9] = 10 days between application and inoculation
[10] = 1 day between application and observation
[11] = 2 days between application and observation
[12] = 3 days between application and observation
[13] = 4 days between application and observation
[14] = 5 days between application and observation

## CCC(c1ccc(F)cc1Cl)C(C#N)c1cccnc1 (centres unmarked) [Compound 12, 3-(2-chloro-4-fluorophenyl)-2-(3-pyridyl)pentanenitrile]
[1]
  Average infected area: 5%
  Controlled value: 95%
[2]
  EC90: 0.9 µg/mL (≈ 3.12 µM)
[3]; [6]
  Infection degree: 10.0
[3]; [7]
  Infection degree: 11.0
[3]; [8]
  Infection degree: 12.0
[3]; [9]
  Infection degree: 15.0
[4]; [10]
  Diameter of lesion: 10 mm
[4]; [11]
  Diameter of lesion: 15 mm
[4]; [12]
  Diameter of lesion: 17 mm
[4]; [13]
  Diameter of lesion: 19 mm
[4]; [14]
  Diameter of lesion: 19 mm

## COC(=O)NC(=S)Nc1ccccc1NC(=S)NC(=O)OC [E, dimethyl-4,4′-o-phenylene-bis(3-thioalfanate)]
[1]
  Average infected area: 20%
  Controlled value: 80%
[4]; [10]
  Diameter of lesion: 10 mm
[4]; [11]
  Diameter of lesion: 18 mm
[4]; [12]
  Diameter of lesion: 21 mm
[4]; [13]
  Diameter of lesion: 22 mm
[4]; [14]
  Diameter of lesion: 26 mm

## CC(C)OC(=O)C(C(=O)OC(C)C)=C1SCCS1 [F, diisopropyl-1,3,-dithiolan-2-ylidene malonate]
[5]
  No. of leaves in each infection degree 0: 128
  No. of leaves in each infection degree 1: 45
  No. of leaves in each infection degree 2: 12
  No. of leaves in each infection degree 3: 0
  No. of leaves in each infection degree 4: 0
  % of Infected leaves: 30.8%
  Infection degree: 9.3
  No. of infected leaves: 185

## O=C1OCc2c(Cl)c(Cl)c(Cl)c(Cl)c21 [G, 4,5,6,7-tetrachlorophthalide]
[5]
  No. of leaves in each infection degree 0: 151
  No. of leaves in each infection degree 1: 28
  No. of leaves in each infection degree 2: 1
  No. of leaves in each infection degree 3: 0
  No. of leaves in each infection degree 4: 0
  % of Infected leaves: 16.1%
  Infection degree: 4.2
  No. of infected leaves: 180

## CCCC(c1ccc(Cl)cc1Cl)C(C#N)n1ccnc1 (centres unmarked) [A, 3-(2,4-dichlorophenyl)-2-(1-imidazolyl)hexanenitrile]
[1]
  Average infected area: 40%
  Controlled value: 60%
[2]
  EC90: 10.9 µg/mL (≈ 35.4 µM)
[3]; [6]
  Infection degree: 25.0
[3]; [7]
  Infection degree: 37.5
[3]; [8]
  Infection degree: 45.0
[3]; [9]
  Infection degree: 62.5
[4]; [10]
  Diameter of lesion: 10 mm
[4]; [11]
  Diameter of lesion: 18 mm
[4]; [12]
  Diameter of lesion: 23 mm
[4]; [13]
  Diameter of lesion: 26 mm
[4]; [14]
  Diameter of lesion: 30 mm

## CCC(c1ccc(Cl)cc1Cl)C(C#N)c1cccnc1 (centres unmarked) [Compound 1, 3-(2,4-dichlorophenyl)-2-(3-pyridyl)pentanenitrile]
[1]
  Average infected area: 5%
  Controlled value: 95%
[5]
  No. of leaves in each infection degree 0: 145
  No. of leaves in each infection degree 1: 48
  No. of leaves in each infection degree 2: 13
  No. of leaves in each infection degree 3: 0
  No. of leaves in each infection degree 4: 0
  % of Infected leaves: 29.6%
  Infection degree: 9.0
  No. of infected leaves: 206
[2]
  EC90: 1.4 µg/mL (≈ 4.59 µM)
[3]; [6]
  Infection degree: 10.0
[3]; [7]
  Infection degree: 12.0
[3]; [8]
  Infection degree: 17.5
[3]; [9]
  Infection degree: 17.5
[4]; [10]
  Diameter of lesion: 10 mm
[4]; [11]
  Diameter of lesion: 15 mm
[4]; [12]
  Diameter of lesion: 17 mm
[4]; [13]
  Diameter of lesion: 19 mm
[4]; [14]
  Diameter of lesion: 19 mm

## CC12CC1(C)C(=O)N(c1cc(Cl)cc(Cl)c1)C2=O (centres unmarked) [D, N-(3′,5′-dichlorophenyl)-1,2-dimethylcyclopropane-1,2-dicarboximide]
[3]; [6]
  Infection degree: 12.0
[3]; [7]
  Infection degree: 15.5
[3]; [8]
  Infection degree: 20.5
[3]; [9]
  Infection degree: 25.0

Source: EP0311051A2, “Pyridylacetonitrile derivatives” (priority 1987, dated 1989)
